In patent US10647706B2, “Chemokine CXCR1 and CXCR2 receptor antagonist compounds, and use thereof in the treatment of chemokine-mediated pathologies” (GALDERMA RESEARCH & DEVELOPMENT, priority 2014, dated 2020):
Read-outs that look alike come from different tables or passages of the source.

Assays:
Type in all cases: cell-based
CXCR1 receptor = CXCR1 receptor (Homo sapiens (Human), UniProt P25024); experiment: β-arrestin recruitment test, U2OS hCXCR1 β-arrestin cells stimulated with CXCL8; conditions: CXCL8 10 nM
Chain of CXCR1 receptor (P25024 whole entry): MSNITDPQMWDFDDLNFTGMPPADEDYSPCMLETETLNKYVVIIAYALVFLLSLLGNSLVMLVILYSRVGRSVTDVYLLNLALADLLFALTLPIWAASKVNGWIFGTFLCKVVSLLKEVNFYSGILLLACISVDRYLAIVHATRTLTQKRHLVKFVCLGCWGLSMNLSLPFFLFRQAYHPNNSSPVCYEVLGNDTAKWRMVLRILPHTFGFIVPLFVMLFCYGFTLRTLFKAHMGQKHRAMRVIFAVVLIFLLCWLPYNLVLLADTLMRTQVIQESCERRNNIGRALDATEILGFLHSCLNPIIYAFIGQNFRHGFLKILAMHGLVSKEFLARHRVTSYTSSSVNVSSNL
Experimental: (§1) The in vitro affinity of the compounds of the present invention for the CXCR1 and CXCR2 receptors is determined on a functional test of β-arrestin recruitment type after activation of the receptor.
(§2) To evaluate the direct interaction of the CXCR2 or CXCR1 receptor with β-arrestin 2, a test of β-arrestin 2 recruitment for CXCR2 or CXCR1 based on complementation of the β-galactosidase enzyme (Olson K. R., Eglen R. M., Beta-galactosidase complementation: a cell-based luminescent assay platform for drug discovery. Assay Drug Dev. Technol. 2007 February; 5(1); 137-44), as established by DiscoveRx Corporation was used. Stimulation of these two cell lines with CXCL8 (10 nM) induces the recruitment of β-arrestin 2, as indicated by a significant increase in the induction factor. All the CXCR2 antagonists are tested in a dose-dependent manner and the concentration corresponding to 50% inhibition of the response is determined (IC50=concentration of half-inhibition).
(§3) β-Arrestin Recruitment Test: “PathHunter HEK293-CXCR2” or “U20S hCXCR1 β-arrestin” cells (DiscoveRx Corporation) were seeded overnight at 10 000 cells/well (384-well format) in 20 μl of Opti MEM I medium. Preincubation with the antagonist or the vehicle for 30 minutes at 37° C. and 5% CO2 was followed by 60 minutes of stimulation with CXCL8 at 37° C. and 5% CO2. The cells were then placed at room temperature for 30 minutes. The PathHunter detection reagent (DiscoveRx Corporation) was added. After incubation for 60 minutes at room temperature, the β-galactosidase induced by the luminescence during the β-arrestin-CXCR2 interaction was measured for 0.3 s in an Envision 2102 Multilabel Reader (PerkinElmer Life and Analytical Sciences). The data are analysed via a non-linear curve procedure using the XLFit4 (IDBS) exploitation software, and the IC50 values are determined.

CXCR2 receptor = CXCR2 receptor (Homo sapiens (Human), UniProt P25025); experiment: β-arrestin recruitment test, PathHunter HEK293-CXCR2 cells stimulated with CXCL8; conditions: CXCL8 10 nM
Chain of CXCR2 receptor (P25025 whole entry): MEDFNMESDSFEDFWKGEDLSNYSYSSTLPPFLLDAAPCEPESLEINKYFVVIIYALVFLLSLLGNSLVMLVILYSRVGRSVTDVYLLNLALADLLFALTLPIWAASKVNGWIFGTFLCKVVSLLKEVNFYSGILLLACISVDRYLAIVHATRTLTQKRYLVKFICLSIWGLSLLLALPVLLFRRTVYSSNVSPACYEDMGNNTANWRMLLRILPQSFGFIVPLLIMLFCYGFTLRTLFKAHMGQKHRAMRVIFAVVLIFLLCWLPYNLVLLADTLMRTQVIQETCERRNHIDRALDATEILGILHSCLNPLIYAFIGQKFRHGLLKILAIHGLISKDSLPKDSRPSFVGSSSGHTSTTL
Experimental: as §1, §2, §3

human neutrophils = experiment: Neutrophil migration (chemotaxis assay, Transwell, IL-8); conditions: 10 nM IL-8, 1 hour incubation
Experimental: Purification and culturing of human neutrophils Peripheral blood preparations (18-24 hours) are collected in duly registered clinics or clinical laboratories from healthy volunteers who consented to the re-use of their blood for scientific research (Supplier: Biopredic International). The neutrophils are separated from the whole blood via a positive selection (Whole Blood CD15 MicroBeads: MiltenyiBiotech, Reference: 130-091-058). The cells are resuspended at a rate of 4×10^6 cells per mL in RPMI 1640 culture medium (Invitrogen) supplemented with filtered and heat-inactivated 5% foetal calf serum (FCS) (Invitrogen).
The experiments were performed in “HTS Transwell 96 Well Permeable Supports 3-μm pore size” filter plates (Corning, Reference: 3386). The response doses of CXCRS antagonists are applied in the lower compartments of the plates in the presence of 10 nM of IL-8 (1-72 aa, R&D Systems, Cat. No. IL-208). The neutrophils are then seeded in the upper compartment (2×10^5 cells/well). After 1 hour of incubation at 37° C. and 5% CO2, the number of viable cells that have crossed the membrane and are in the lower compartment is determined via a colorimetric method (CellTiter 96® AQueous One Solution Cell Proliferation Assay—PROMEGA Cat # G3581). Each treatment condition is evaluated in duplicate. The IC50 values are calculated with the XLFit4 software.

[1] = Homo sapiens, Neutrophil, class symbols, read-out: Migration of human neutrophils IC50
[2] = Homo sapiens, Neutrophil, read-out: Migration of h neutrophils IC50

| Compound | IC50 (CXCR1 receptor; class symbols) | IC50 (CXCR2 receptor; class symbols) | IC50 (human neutrophils; [1]) | IC50 (human neutrophils; [2]) | IC50 (CXCR1 receptor) | IC50 (CXCR2 receptor) | IC50 (human neutrophils; class symbols, read-out: Migration of human neutrophils IC50) |
| --- | --- | --- | --- | --- | --- | --- | --- |
| CC[C@@H](Nc1c(Nc2cccc(S(C)(=O)=NC)c2O)c(=O)c1=O)c1ccc(C)o1 (single isomer, unassigned; (+)) [Example 16] |  | < 20 nM | ≥ 300 nM | 356 nM | 36 nM | 18 nM |  |
| CC[C@@H](Nc1c(Nc2cccc(S(C)(=O)=NC)c2O)c(=O)c1=O)c1ccc(C)o1 (single isomer, unassigned; (+)) [Example 17] | ≥ 200 nM |  |  |  |  |  |  |
| CC[C@@H](Nc1c(Nc2ccc(Cl)c(S(C)(=O)=NC)c2O)c(=O)c1=O)c1ccc(C)o1 (single isomer, unassigned; (+)) [Example 20] | < 200 nM | < 20 nM | < 300 nM |  |  |  |  |
| CC[C@@H](Nc1c(Nc2cccc(S(C)(=O)=NC)c2O)c(=O)c1=O)c1ccccn1 (single isomer, unassigned; (-)) [Example 14] | < 200 nM | ≥ 20 nM | ≥ 300 nM |  |  |  |  |
| CC[C@@H](Nc1c(Nc2cccc(S(C)(=O)=NC)c2O)c(=O)c1=O)c1ccccn1 (single isomer, unassigned; (-)) [Example 15] | ≥ 200 nM |  |  |  |  |  |  |
| CC[C@@H](Nc1c(Nc2ccc(Cl)c(S(C)(=N)=O)c2O)c(=O)c1=O)c1ccc(C)o1 (stereo partly drawn) [Example 1, 3-(4-Chloro-2-hydroxy-3-methanesulfoximinophenylamino)-4-[(R)-1-(5-methylfuran-2-yl)propylamino]cyclobut-3-ene-1,2-dione] | < 200 nM | < 20 nM | < 300 nM |  |  |  |  |
| CC[C@@H](Nc1c(Nc2ccc(Cl)c(S(C)(=O)=NC)c2O)c(=O)c1=O)c1ccc(C)o1 (stereo partly drawn) [Example 2, 3-{4-Chloro-2-hydroxy-3-methane[(N-methyl)sulfoximino]phenylamino}-4-[(R)-1-(5-methylfuran-2-yl)propylamino]cyclobut-3-ene-1,2-dione] |  |  |  |  |  |  | < 300 nM |
| CC[C@@H](Nc1c(Nc2ccc(Cl)c(S(C)(=O)=Nc3ccncc3)c2O)c(=O)c1=O)c1ccc(C)o1 (stereo partly drawn) [Example 3, 3-{4-Chloro-2-hydroxy-3-methane[(N-pyridin-4-yl)sulfoximino]phenylamino}-4-[(R)-1-(5-methylfuran-2-yl)propylamino]cyclobut-3-ene-1,2-dione] | ≥ 200 nM | ≥ 20 nM |  |  |  |  |  |
| CCC(CC)Nc1c(Nc2ccc(Cl)c(S(C)(=O)=Nc3ccncc3)c2O)c(=O)c1=O (stereo not shown) [Example 4, 3-{4-Chloro-2-hydroxy-3-methane[(N-pyridin-4-yl)sulfoximino]phenylamino}-4-(1-ethylpropylamino)cyclobut-3-ene-1,2-dione] | ≥ 200 nM | ≥ 20 nM |  |  |  |  |  |
| CN=S(C)(=O)c1c(Cl)ccc(NC(=O)Nc2cccc(F)c2Cl)c1O (stereo not shown) [Example 7, 1-(2-Chloro-3-fluorophenyl)-3-{4-chloro-2-hydroxy-3-methane[(N-methyl)sulfoximino]phenyl}urea] | ≥ 200 nM | ≥ 20 nM |  |  |  |  |  |
| CCC(CC)Nc1c(Nc2ccc(Cl)c(S(C)(=O)=NCCN(C)C)c2O)c(=O)c1=O (stereo not shown) [Example 10, 3-[4-Chloro-3-[N-(2-dimethylaminoethyl)-S-methylsulfonimidoyl]-2-hydroxyanilino]-4-(1-ethylpropylamino)cyclobut-3-ene-1,2-dione] | ≥ 200 nM | ≥ 20 nM |  |  |  |  |  |
| CC[C@@H](Nc1c(Nc2ccc(Cl)c(S(C)(=O)=NCCOC)c2O)c(=O)c1=O)c1ccc(C)o1 (stereo partly drawn) [Example 11, 3-[4-Chloro-2-hydroxy-3-[N-(2-methoxyethyl)-S-methylsulfonimidoyl]anilino]-4-[[(1R)-1-(5-methyl-2-furyl)propyl]amino]cyclobut-3-ene-1,2-dione] | ≥ 200 nM | ≥ 20 nM |  |  |  |  |  |

The remaining lines, values ahead:

| IC50 (CXCR1 receptor; class symbols) | IC50 (CXCR2 receptor; class symbols) | IC50 (human neutrophils; [1]) | IC50 (human neutrophils; [2]) | IC50 (CXCR1 receptor) | IC50 (CXCR2 receptor) | IC50 (human neutrophils; class symbols, read-out: Migration of human neutrophils IC50) | Compound |
| --- | --- | --- | --- | --- | --- | --- | --- |
| ≥ 200 nM | ≥ 20 nM |  |  |  |  |  | CC[C@@H](Nc1c(Nc2ccc(Cl)c(S(C)(=O)=NC)c2O)c(=O)c1=O)c1ccccn1 (single isomer, unassigned; (+)) [Example 13] |
| < 200 nM | < 20 nM | < 300 nM | 82 nM | 28 nM | 16 nM |  | CC[C@@H](Nc1c(Nc2ccc(Cl)c(S(C)(=O)=NC)c2O)c(=O)c1=O)c1ccccn1 (single isomer, unassigned; (-)) [Example 12] |
| ≥ 200 nM | ≥ 20 nM | ≥ 300 nM |  |  |  |  | CCC(CC)Nc1c(Nc2cccc(S(C)(=O)=NC)c2O)c(=O)c1=O (single isomer, unassigned; (-)) [Example 18] |
| < 200 nM | ≥ 20 nM | < 300 nM |  |  |  |  | CN=S(C)(=O)c1c(Cl)ccc(Nc2c(N[C@@H](c3ccc(C)o3)[C@H]3CCCS3)c(=O)c2=O)c1O (stereo partly drawn) [Example 5, 3-{4-Chloro-2-hydroxy-3-methane[(N-methyl)sulfoximino]phenylamino}-4-{[(S)-(5-methylfuran-2-yl)-(R)-tetrahydrothiophen-2-ylmethyl]amino}cyclobut-3-ene-1,2-dione] |
| ≥ 200 nM | ≥ 20 nM |  |  |  |  |  | CS(=N)(=O)c1c(Cl)ccc(NC(=O)Nc2cccc(F)c2Cl)c1O (stereo not shown) [Example 6, 1-(2-Chloro-3-fluorophenyl)-3-(4-chloro-2-hydroxy-3-methanesulfoximinephenyl)-urea] |
| < 200 nM | ≥ 20 nM | ≥ 300 nM |  |  |  |  | CC[C@@H](Nc1c(Nc2cccc(S(C)(=O)=NC)c2O)c(=O)c1=O)c1ccc(C)o1 (stereo partly drawn) [Example 8, 3-{2-Hydroxy-3-methane[(N-methyl)sulfoximino]phenylamino}-4-[(R)-1-(5-methylfuran-2-yl)propylamino]cyclobut-3-ene-1,2-dione] |
